Experiment [1] addresses T1, Coagulation factor XIII A chain (Homo sapiens) (UniProt P00488).
T1 sequence (whole entry): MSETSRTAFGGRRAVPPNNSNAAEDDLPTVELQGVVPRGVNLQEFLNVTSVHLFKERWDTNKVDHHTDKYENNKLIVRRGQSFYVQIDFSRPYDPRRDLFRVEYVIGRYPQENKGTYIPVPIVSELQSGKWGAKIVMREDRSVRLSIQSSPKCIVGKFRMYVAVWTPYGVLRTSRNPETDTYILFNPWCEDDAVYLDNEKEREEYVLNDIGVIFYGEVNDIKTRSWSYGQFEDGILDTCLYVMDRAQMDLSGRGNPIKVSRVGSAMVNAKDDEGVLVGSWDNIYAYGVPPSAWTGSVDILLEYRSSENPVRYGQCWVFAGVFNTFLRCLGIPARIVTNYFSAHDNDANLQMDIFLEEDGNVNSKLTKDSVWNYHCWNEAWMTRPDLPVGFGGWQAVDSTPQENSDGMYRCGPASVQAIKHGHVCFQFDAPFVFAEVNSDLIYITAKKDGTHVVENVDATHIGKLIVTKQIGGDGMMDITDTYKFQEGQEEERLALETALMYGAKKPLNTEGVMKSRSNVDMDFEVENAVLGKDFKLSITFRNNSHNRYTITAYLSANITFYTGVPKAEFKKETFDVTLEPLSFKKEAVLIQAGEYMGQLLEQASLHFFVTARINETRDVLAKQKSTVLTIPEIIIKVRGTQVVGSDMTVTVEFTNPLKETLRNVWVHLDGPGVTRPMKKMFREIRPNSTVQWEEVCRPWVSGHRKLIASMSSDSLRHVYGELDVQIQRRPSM
Kind of experiment: Inhibition of F13-A in human plasma assessed as inhibition of fibrin clot formation at 2 X 10^-7 M by biotin incorporation assay. To be noted: values are per cent of control.

In experiment [2] the target is T1, Coagulation factor XIII A chain (Homo sapiens). The experiment is described as follows: Inhibition of F13-A in human plasma assessed as inhibition of fibrin clot formation at 2 X 10^-7 M by biotin incorporation assay in presence of 10 X 10^-3 mol/l reduced GSH. The conditions noted are these: values are per cent of control.
Experiment [3] has the same target. The experiment is described as follows: Inhibition of F13-A in human plasma assessed as inhibition of fibrin clot formation at 2 X 10^-8 M by biotin incorporation assay. The conditions noted are these: values are per cent of control.
For experiment [4], the target named is Cathepsin S (Homo sapiens) (UniProt P25774). Kind of experiment: Inhibition of cathepsin S (unknown origin) using Z-Val-Val-Arg-AMC as substrate at 100 uM measured every minute for 30 mins by fluorometric plate reader analysis.
Cathepsin S (Homo sapiens), sequence (P25774 115-331 limits assumed): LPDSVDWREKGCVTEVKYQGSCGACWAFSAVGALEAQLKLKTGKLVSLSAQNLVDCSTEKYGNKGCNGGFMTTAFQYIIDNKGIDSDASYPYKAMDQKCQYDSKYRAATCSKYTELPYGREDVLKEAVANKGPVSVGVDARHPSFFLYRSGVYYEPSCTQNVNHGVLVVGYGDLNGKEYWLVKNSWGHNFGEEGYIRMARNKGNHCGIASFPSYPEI
Experiment [5] deals with T2, Protein-glutamine gamma-glutamyltransferase (Homo sapiens, UniProt P21980).
T2 sequence (P21980 whole entry): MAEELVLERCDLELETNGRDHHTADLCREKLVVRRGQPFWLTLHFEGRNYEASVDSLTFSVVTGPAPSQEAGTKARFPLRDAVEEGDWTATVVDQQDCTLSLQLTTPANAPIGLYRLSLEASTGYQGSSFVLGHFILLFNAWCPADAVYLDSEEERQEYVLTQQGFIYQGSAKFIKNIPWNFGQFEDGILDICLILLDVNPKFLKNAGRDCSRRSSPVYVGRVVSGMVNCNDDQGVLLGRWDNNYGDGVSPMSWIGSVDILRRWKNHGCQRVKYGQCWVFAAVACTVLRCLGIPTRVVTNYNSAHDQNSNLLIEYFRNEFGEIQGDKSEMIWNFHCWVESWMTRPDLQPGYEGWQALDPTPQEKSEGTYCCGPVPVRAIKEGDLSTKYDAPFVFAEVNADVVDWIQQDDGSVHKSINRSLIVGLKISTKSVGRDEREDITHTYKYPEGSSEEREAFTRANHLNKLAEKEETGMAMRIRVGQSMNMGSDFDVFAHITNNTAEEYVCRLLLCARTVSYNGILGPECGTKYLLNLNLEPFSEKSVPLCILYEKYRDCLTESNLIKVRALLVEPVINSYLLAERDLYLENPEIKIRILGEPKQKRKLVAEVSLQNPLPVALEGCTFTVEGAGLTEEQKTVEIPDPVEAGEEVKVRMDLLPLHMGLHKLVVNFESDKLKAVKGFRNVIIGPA
Kind of experiment: Inhibition of transglutaminase 2 (unknown origin).

Experiment [6] has as its target T3, Coagulation factor XIII A chain (Homo sapiens, UniProt P00488).
T3 sequence (P00488 whole entry): T1 sequence (whole entry)
The experiment is described as follows: Inhibition of thrombin-activated F13-A (unknown origin) in plasma assessed as inhibition of fibrin clot formation after 7 mins by biotin incorporation assay.

Experiment [7] concerns the target T1, Coagulation factor XIII A chain (Homo sapiens). Kind of experiment: Inhibition of F13-A in human plasma assessed as inhibition of fibrin clot formation at 2 X 10^-8 M by biotin incorporation assay in presence of 10 X 10^-3 mol/l reduced GSH. The conditions noted are these: values are per cent of control.
The target is the same in experiment [8]. Kind of experiment: Inhibition of F13-A in human plasma assessed as inhibition of fibrin clot formation at 7.5 X 10^-8 M by biotin incorporation assay in presence of 10 X 10^-3 mol/l reduced GSH. To be noted: values are per cent of control.
For a further experiment, the species on record is Homo sapiens. Kind of experiment: Selectivity ratio, ratio of concentration required for inhibition of cathepsin S (unknown origin) to IC50 for F13-A (unknown origin).
Experiment [9] has as its target T1, Coagulation factor XIII A chain (Homo sapiens). The experiment is described as follows: Inhibition of F13-A in human plasma assessed as inhibition of fibrin clot formation at 7.5 X 10^-8 M by biotin incorporation assay. The conditions noted are these: values are per cent of control.
Experiment [10] has the same target. The experiment is described as follows: Inhibition of F13-A in human plasma assessed as inhibition of fibrin clot formation at 1 X 10^-6 M by biotin incorporation assay. To be noted: values are per cent of control.
The target is the same in experiment [11]. The experiment is described as follows: Inhibition of F13-A in human plasma assessed as inhibition of fibrin clot formation at 1 X 10^-6 M by biotin incorporation assay in presence of 10 X 10^-3 mol/l reduced GSH. The conditions noted are these: values are per cent of control.
The target is the same in experiment [12]. The experiment is described as follows: Inhibition of F13-A (unknown origin) at 10^-6 mol/l in presence of 5 X 10^-3 mol/l DTT.
Experiment [13] deals with T3, Coagulation factor XIII A chain. Kind of experiment: Inhibition of F13-A in human plasma assessed as inhibition of fibrin clot formation by biotin incorporation assay in presence of 1 mM reduced GSH.

Calls of active or inactive are those of the source. No cut-off for these calls is given here.

Turning to `CCCCc1ccc(NC(=O)[C@@H]2O[C@@H]2C(N)=O)cc1` (racemic), the residual activity is 76% in experiment [1]; 79% in experiment [2]; 93% in [3]; 102% in [7]; 104% in [8]; 99% in [9]. The residual activity in experiment [10] came out at 27%; in experiment [11], 34%. Moreover, the inhibition result in experiment [4] is “inactive”. The IC50 in experiment [5] was determined as 150 nM; in experiment [6] it was 220 nM. Further, the Selectivity ratio in the experiment filed under Homo sapiens came out at 10000.
Take `NC(=O)[C@H]1O[C@H]1C(=O)Nc1ccc(Oc2ccccc2)cc1` (racemic): the residual activity in experiment [1] amounted to 32%; in experiment [2], 47%; in [3] it was 96%; in experiment [7], 90%; in [8] it was 78%; in experiment [9], 66%. In addition, the figures for the residual activity in [10] and in experiment [11] were 6.1% and 7.8%, respectively. In addition, the inhibition result in experiment [4] is “inactive”. Also, the 50% inhibitory concentration (IC50) is 46 nM in experiment [5] and 55 nM in [6]. Besides, the inhibition entry in experiment [12] is “Active”. Moreover, the Selectivity ratio in the experiment listed under Homo sapiens was determined as 10000.
In the case of `NC(=O)[C@H]1O[C@H]1C(=O)Nc1cccc(Cl)c1` (racemic), in experiment [4], the inhibition result is “inactive”. The IC50 in experiment [5] and in experiment [6] was 48 nM in each case. Moreover, in the experiment listed under Homo sapiens, the Selectivity ratio is 10000.
Turning to `NC(=O)[C@H]1O[C@H]1C(=O)Nc1cccc(Oc2ccccc2)c1` (racemic), the inhibition result in [4] was “inactive”. Besides, the IC50 in experiment [5] worked out at 50 nM; in experiment [6] it was 4 nM. The Selectivity ratio in the experiment filed under Homo sapiens was determined as 10000.
The corresponding values for `NC(=O)[C@@H]1O[C@@H]1C(=O)Nc1ccccc1` (racemic) are “inactive”, 1100 nM, 720 nM and 10000.
Taken in the same sequence, the figures for `NC(=O)[C@@H]1O[C@@H]1C(=O)Nc1ccc(Br)cc1` (racemic) were “inactive”, 57 nM, 130 nM and 10000.
The corresponding values for `NC(=O)[C@@H]1O[C@@H]1C(=O)Nc1ccc(Br)c(Cl)c1` (racemic) are “inactive”, 9.6 nM, 4 nM and 10000.
With `Cc1ccc(NC(=O)[C@H]2O[C@H]2C(N)=O)cc1C` (racemic), in [4], the inhibition result is “inactive”. The IC50 is 130 nM in [5] and 110 nM in [6]. Besides, in the experiment filed under Homo sapiens, the Selectivity ratio came to 10000.
For the compound `NC(=O)[C@@H]1O[C@@H]1C(=O)Nc1ccc(CCNS(=O)(=O)c2ccccc2[N+](=O)[O-])cc1` (racemic), the inhibition entry in experiment [4] was “inactive”. Also, the IC50 amounted to 88 nM in [5] and 90 nM in experiment [6]. Besides, the Selectivity ratio in the experiment filed under Homo sapiens is 10000.
In the case of `NC(=O)[C@@H]1O[C@@H]1C(=O)Nc1ccc(Oc2ccc([N+](=O)[O-])cc2)cc1` (racemic), the inhibition result in experiment [4] was “inactive”. Further, in experiment [6], the IC50 was 430 nM. The Selectivity ratio in the experiment filed under Homo sapiens was 10000.
On to `NC(=O)[C@@H]1O[C@@H]1C(=O)Nc1ccc(Oc2ccc(N)cc2)cc1` (racemic), for which the inhibition result in experiment [4] is “inactive”. Besides, the IC50 in experiment [5] was determined as 48 nM; in [6], 86 nM. The Selectivity ratio in the experiment filed under Homo sapiens is 10000.
The corresponding values for `NC(=O)[C@@H]1O[C@@H]1C(=O)Nc1ccc(Oc2ccc(NC(=O)c3ccc(F)cc3)cc2)cc1` (racemic) are “inactive”, 150 nM, 100 nM and 10000.
With `C/C=C/C/C=C/CCC(=O)[C@H]1O[C@H]1C(N)=O` [CERULENIN], the half-inhibitory concentration (IC50) in [13] was 18000 nM; in experiment [6] it was 4000 nM.

The values above are taken from ChEMBL document CHEMBL3421597, “(±) cis-Bisamido epoxides: A novel series of potent FXIII-A inhibitors” (Eur J Med Chem, 2015).
